The experiment has as its system BDF1 mice, B16 melanoma ip, median survival T/C. The experiment in a line: NCI In Vivo Anticancer Drug Screen. Data for tumor model B16 Melanoma (intraperitoneal) in B6D2F1 (BDF1) mice. Conditions: endpoint: median survival time, higher = longer survival. On the procedure:
The antitumor activity of compounds was measured in mice bearing transplantable tumors. Survival or tumor size were measured and the results are expressed as the measurement made in the treated group (T) divided by the measurement made in the vehicle treated control group (C). The tumor model used in this assay is B16 Melanoma (intraperitoneal) in B6D2F1 (BDF1) mice

Where [1] appears, read: dose: 2.5 mg/kg/injection, schedule: Q01DX009 (ip), vehicle: saline.
Where [2] appears, read: dose: 100.0 mg/kg/injection, schedule: Q01DX009 (ip), vehicle: Klucel (hydroxypropylcellulose) (HPC).
[3] abbreviates: dose: 200.0 mg/kg/injection, schedule: Q01DX009 (ip), vehicle: Klucel (hydroxypropylcellulose) (HPC).

Several values for one entry are separate records, joined by “and”; a condition that tells them apart may be missing. Equal values may be shown once. Toxic doses and inconclusive results are not listed.

Regarding `CO[C@@]12[C@H](COC(N)=O)C3=C(C(=O)C(C)=C(N)C3=O)N1C[C@@H]1N[C@@H]12`, the T/C runs as follows: (dose: 0.06 mg/kg/injection, schedule: Q01DX009 (ip), vehicle: Klucel (hydroxypropylcellulose) (HPC)) 113 % of control; (dose: 0.1 mg/kg/injection, schedule: Q04DX003 (ip), vehicle: saline) 99 % of control; (dose: 0.13 mg/kg/injection, schedule: Q01DX001 (ip), vehicle: clinical formulation) 105 % of control; (dose: 0.13 mg/kg/injection, schedule: Q01DX009 (ip), vehicle: Klucel (hydroxypropylcellulose) (HPC)) 114 % of control; (dose: 0.13 mg/kg/injection, schedule: Q01DX009 (ip), vehicle: saline) 117 % of control; (dose: 0.2 mg/kg/injection, schedule: Q04DX003 (ip), vehicle: saline) 113 % of control. Also, the T/C (dose: 0.22 mg/kg/injection, schedule: Q01DX009 (ip), vehicle: saline) was 103 % of control; the T/C (dose: 0.25 mg/kg/injection, schedule: Q01DX001 (ip), vehicle: clinical formulation) was 114 % of control; the T/C (dose: 0.25 mg/kg/injection, schedule: Q01DX009 (ip), vehicle: Klucel (hydroxypropylcellulose) (HPC)) was 110 % of control; the T/C (dose: 0.25 mg/kg/injection, schedule: Q01DX009 (ip), vehicle: saline) was 103 % of control; the T/C (dose: 0.36 mg/kg/injection, schedule: Q01DX009 (ip), vehicle: saline) is 117 % of control; the T/C (dose: 0.5 mg/kg/injection, schedule: Q01DX001 (ip), vehicle: clinical formulation) is 123 % of control. Moreover, the T/C is, setting by setting: (dose: 0.5 mg/kg/injection, schedule: Q01DX009 (ip), vehicle: Klucel (hydroxypropylcellulose) (HPC)) 113 % of control; (dose: 0.5 mg/kg/injection, schedule: Q01DX009 (ip), vehicle: saline) 159 % of control; (dose: 0.54 mg/kg/injection, schedule: Q01DX009 (ip), vehicle: saline) 154 % of control and 217 % of control; (dose: 0.54 mg/kg/injection, schedule: Q01DX010 (ip), vehicle: saline) 114 % of control; (dose: 0.6 mg/kg/injection, schedule: Q01DX009 (ip), vehicle: saline) 151 % of control; (dose: 0.9 mg/kg/injection, schedule: Q01DX010 (ip), vehicle: saline) 107 % of control. Besides, the T/C is, setting by setting: (dose: 1.0 mg/kg/injection, schedule: Q01DX007 (ip), vehicle: saline) 152 % of control; (dose: 1.0 mg/kg/injection, schedule: Q01DX009 (ip), vehicle: Klucel (hydroxypropylcellulose) (HPC)) 181 % of control and 189 % of control; (dose: 1.0 mg/kg/injection, schedule: Q01DX009 (ip), vehicle: saline sonified) 169 % of control; (dose: 1.0 mg/kg/injection, schedule: Q04DX003 (ip), vehicle: clinical formulation) 159 % of control; (dose: 1.5 mg/kg/injection, schedule: Q01DX010 (ip), vehicle: saline) 101 % of control; (dose: 1.5 mg/kg/injection, schedule: Q04DX003 (ip), vehicle: clinical formulation) 151 % of control. Moreover, the T/C was 164 % of control (dose: 1.5 mg/kg/injection, schedule: Q04DX003 (ip), vehicle: saline); 172 % of control (dose: 1.6 mg/kg/injection, schedule: Q04DX003 (ip), vehicle: saline); 151 % of control (dose: 1.67 mg/kg/injection, schedule: Q01DX009 (ip), vehicle: saline); 153 % of control (dose: 2.0 mg/kg/injection, schedule: Q01DX001 (ip), vehicle: clinical formulation); 236 % of control (dose: 2.0 mg/kg/injection, schedule: Q04DX003 (ip), vehicle: clinical formulation); 34 % of control and 57 % of control under setting [1]. For the same molecule, the T/C (dose: 2.5 mg/kg/injection, schedule: Q01DX010 (ip), vehicle: saline) was 105 % of control; the T/C (dose: 3.0 mg/kg/injection, schedule: Q04DX003 (ip), vehicle: clinical formulation) was 260 % of control; the T/C (dose: 3.0 mg/kg/injection, schedule: Q04DX003 (ip), vehicle: saline) was 193 % of control; the T/C (dose: 3.2 mg/kg/injection, schedule: Q04DX003 (ip), vehicle: saline) was 231 % of control; the T/C (dose: 4.0 mg/kg/injection, schedule: Q01DX007 (ip), vehicle: saline) is 57 % of control.
`COC(=O)C1=C(N)CCc2ccccc21`: the T/C (dose: 100.0 mg/kg/injection, schedule: Q01DX009 (ip), vehicle: saline with Tween-80) was 90 % of control and the T/C (dose: 200.0 mg/kg/injection, schedule: Q01DX009 (ip), vehicle: saline with Tween-80) was 95 % of control.
As for `Cc1ccc(S(=O)(=O)NC(=O)C2C(=O)CC3(CCCCC3)CC2=O)cc1`, the T/C runs as follows: (dose: 25.0 mg/kg/injection, schedule: Q01DX009 (ip), vehicle: Klucel (hydroxypropylcellulose) (HPC)) 97 % of control; (dose: 50.0 mg/kg/injection, schedule: Q01DX009 (ip), vehicle: Klucel (hydroxypropylcellulose) (HPC)) 100 % of control and 111 % of control; under setting [2], 96 % of control and 113 % of control; under setting [3], 94 % of control.
For `CCCCCCCCCCCCCC[N+](C)(C)CC(=O)O`, the T/C is 93 % of control (dose: 12.5 mg/kg/injection, schedule: Q01DX009 (ip), vehicle: saline with Tween-80); 91 % of control (dose: 25.0 mg/kg/injection, schedule: Q01DX009 (ip), vehicle: saline with Tween-80); 86 % of control (dose: 50.0 mg/kg/injection, schedule: Q01DX009 (ip), vehicle: saline with Tween-80).
For `NP(Cl)(c1ccccc1)(c1ccccc1)c1ccccc1`, the T/C (dose: 0.1 mg/kg/injection, schedule: Q01DX009 (ip), vehicle: Klucel (hydroxypropylcellulose) (HPC)) is 103 % of control; the T/C (dose: 0.2 mg/kg/injection, schedule: Q01DX009 (ip), vehicle: Klucel (hydroxypropylcellulose) (HPC)) is 96 % of control; the T/C (dose: 0.39 mg/kg/injection, schedule: Q01DX009 (ip), vehicle: Klucel (hydroxypropylcellulose) (HPC)) is 100 % of control.
`CCN(CC)CCCC(C)NS(=O)(=O)c1cccc2c(N(C)C)cccc12` (configuration not stated): the T/C was 104 % of control (dose: 6.25 mg/kg/injection, schedule: Q01DX009 (ip), vehicle: water); 104 % of control (dose: 12.5 mg/kg/injection, schedule: Q01DX009 (ip), vehicle: water); 97 % of control (dose: 25.0 mg/kg/injection, schedule: Q01DX009 (ip), vehicle: water); 98 % of control (dose: 50.0 mg/kg/injection, schedule: Q01DX009 (ip), vehicle: water); 92 % of control (dose: 100.0 mg/kg/injection, schedule: Q01DX009 (ip), vehicle: water).
On to `Cc1c2ccncc2c(C)c2c1[nH]c1ccccc12`, for which the T/C reads like this: (dose: 1.25 mg/kg/injection, schedule: Q01DX009 (ip), vehicle: saline) 109 % of control; (dose: 1.25 mg/kg/injection, schedule: Q01DX009 (ip), vehicle: water) 102 % of control; under setting [1], 113 % of control; (dose: 2.5 mg/kg/injection, schedule: Q01DX009 (ip), vehicle: water) 103 % of control and 110 % of control; (dose: 5.0 mg/kg/injection, schedule: Q01DX009 (ip), vehicle: saline) 120 % of control; (dose: 5.0 mg/kg/injection, schedule: Q01DX009 (ip), vehicle: water) 110 % of control and 114 % of control. Moreover, the T/C (dose: 8.0 mg/kg/injection, schedule: Q01DX005 (iv), vehicle: saline with Tween-80) was 106 % of control; the T/C (dose: 12.5 mg/kg/injection, schedule: Q04DX003 (ip), vehicle: distilled water + Tween-80) is 117 % of control and 121 % of control; the T/C (dose: 16.0 mg/kg/injection, schedule: Q01DX005 (ip), vehicle: saline with Tween-80) was 171 % of control; the T/C (dose: 16.0 mg/kg/injection, schedule: Q01DX005 (iv), vehicle: saline with Tween-80) was 110 % of control; the T/C (dose: 16.0 mg/kg/injection, schedule: Q01DX005 (oral), vehicle: saline with Tween-80) is 110 % of control; the T/C (dose: 25.0 mg/kg/injection, schedule: Q04DX003 (ip), vehicle: distilled water + Tween-80) is 119 % of control. The T/C reads like this: (dose: 32.0 mg/kg/injection, schedule: Q01DX005 (ip), vehicle: saline with Tween-80) 191 % of control; (dose: 32.0 mg/kg/injection, schedule: Q01DX005 (oral), vehicle: saline with Tween-80) 108 % of control; (dose: 50.0 mg/kg/injection, schedule: Q04DX003 (ip), vehicle: Klucel (hydroxypropylcellulose) (HPC)) 154 % of control; (dose: 64.0 mg/kg/injection, schedule: Q01DX005 (oral), vehicle: saline with Tween-80) 117 % of control; (dose: 100.0 mg/kg/injection, schedule: Q04DX003 (ip), vehicle: distilled water + Tween-80) 153 % of control.
Regarding `COc1ccc(NC(=O)COc2ccccc2Br)cc1`, the T/C is, setting by setting: under setting [2], 103 % of control; under setting [3], 100 % of control; (dose: 400.0 mg/kg/injection, schedule: Q01DX009 (ip), vehicle: Klucel (hydroxypropylcellulose) (HPC)) 93 % of control.

These data come from PubChem BioAssay AID192 (DTP/NCI, 2004).
